Assay results: patent publication US8420605B2, “Hydrogel compositions” (The University of Strathclyde, priority 2005, dated 2013)
Peptide text beside a SMILES is read from it. * marks the point of attachment. Fmoc = O=C(OCC1c2ccccc2-c2ccccc21)*

Key:
[1] = Preparation of self-assembled peptide hydrogels by pH adjustment (gel formation); assay type: physicochemical
Description: Fmoc peptides (from BACHEM Ltd) were weighed out into 4 ml glass vials. 2 ml purified water was added followed by sonication for 30-60 seconds. 0.5M NaOH solution was added in 50 μl droplets until a clear solution was formed. 0.1M HCl was added to the solution by stepwise addition of 50 μl followed by mixing using a vortex. pH values were estimated by transferring a spatula tip of hydrogel onto universal indicator paper.
Self-assembled scaffolds were prepared by first suspending the Fmoc-dipeptide in purified water. Upon increase of the pH by addition of concentrated NaOH (thus de-protonating the carboxylic acid group) to a value of >8, a clear solution was obtained. To this solution, concentrated hydrochloric acid was added drop wise until the pH of the solution became 7, at which point a clear, self-supporting gel was formed.
Table 3 below identifies various peptide derivatives (incorporating an aromatic stacking ligand) and mixtures thereof that formed gels at a pH of 6-8 at the indicated concentrations: […]

[2] = test system: human adult dermal fibroblasts; experiment: 2D culture on surface of self-assembled peptide hydrogel, cell phenotype under inverted light microscope; assay type: cell-based; conditions: for appearance of fibroblasts on top of hydrogel: 10 mM/L gel
Description: An initial 2D culture of human adult dermal fibroblasts was carried out on the surface of 10 mM/L Fmoc-Phe-Phe-OH self-assembled peptide hydrogels and cell phenotype was investigated under inverted light microscope.
Generally, 0.0107 gram of Fmoc-Phe-Phe-OH was weighed in a glass vial and sterilized for 30 minutes by an ultraviolet light with bottles of distilled water, filtered NaOH (Sodium Hydroxide, 0.5 M/L), filtered HCl (Hydrochloric Acid, 0.5 M/L), and relevant apparatus (spatulas, pipettes, Vortex). 2 mL of the sterile distilled water was then added into the glass vial of Fmoc-Phe-Phe, and the mixture was vortexed for a few seconds to create a suspension. Afterwards, approximate 100 μL of NaOH was gradually pipetted into the suspension (20 μL each pipetting) and the mixture was vortexed after every addition of the alkaline. The whole mixture was shaken continually until a homogeneous transparent solution was obtained. The basic peptide solution (pH around 10) was finally neutralized to pH 7 by dropwise addition of HCl and pH values were monitored by a pH meter with a micro-probe.
The above peptide solutions of physiological pH were aliquoted into a 24 well-plate with 500 μL in each well and the well plate was maintained in a 37° C./5% CO2 incubator overnight. The solution underwent a self-assembling to become hydrogels. Human adult dermal fibroblasts in suspension were then poured on top of the self-assembled hydrogels with 1 mL cell suspension for each well. Cell suspensions of 8×10^4/mL were used with a serum-free DMEM (Dulbecco's modified Eagle's medium) supplemented by 1% antibiotics/antimicotics. […] These originally spreaded cells, however, became rounded with a diameter of around 10 microns between 24 and 72 hours. The phenomenon indicated of a dynamic solid (gel)-liquid (culture medium) interface which formed a malleable, unstable gel surface to wrap and sink cells into the interacted nano-filaments of the gel structure resulting the cells' rounding up.

Human dermal fibroblasts = experiment: Cell phenotype and size comparison in RGD/RGE-containing hydrogels (inverted optic microscope); assay type: cell-based; conditions: after 24 hours, 3D culture, 1 mM/L RGD or RGE peptide with Fmoc-Phe-Phe-OH
Description: Fmoc-SEQ. ID. NO. 1-OH (Fmoc-SEQ. ID. NO. 1) adhesion motifs were introduced to tackle the issue of un-spreaded cells in Fmoc-Phe-Phe-OH gels therefore to induce spreading and focal adhesion of dermal fibroblasts in these self-assembled peptide hydrogels. Fmoc-Phe-Phe-OH and Fmoc-Phe-Phe-OH+Fmoc-SEQ. ID. NO. 2-OH (Fmoc-SEQ. ID. NO. 2) combination were set as comparisons.
0.0014 grams of Fmoc-SEQ. ID. NO. 1or Fmoc-SEQ. ID. NO. 2(1 mM/L in later hydrogels), were weighed and mixed with 0.0107 grams Fmoc-Phe-Phe-OH respectively into glass vials, and 0.0107 grams Fmoc-Phe-Phe-OH alone was weighed as well. The above peptide and peptide mixtures were sterilized for 30 minutes by an ultraviolet light exposure with bottles of distilled water, filtered NaOH (Sodium Hydroxide, 0.5 M/L), filtered HCl (Hydrochloric Acid, 0.5 M/L), and relevant apparatus (spatulas, pipettes, Vortex). 2 mL of the sterile distilled water was then added into each glass vial of Fmoc-Phe-Phe-OH, Fmoc-Phe-Phe-OH+Fmoc-SEQ. ID. NO. 1, and Fmoc-Phe-Phe-OH+Fmoc-SEQ. ID. NO. 2, and the mixtures were vortexed for a few seconds to create suspensions. […] The basic peptide solutions (pH around 10) were finally neutralized to pH 7 by dropwise addition of HCl and pH values were monitored by a pH meter with a micro-probe. […]

O=C(N[C@@H](Cc1ccccc1)C(=O)N[C@@H](Cc1ccccc1)C(=O)O)OCC1c2ccccc2-c2ccccc21 [Entry 1, Fmoc-Phe-Phe-OH] (Fmoc-Phe-Phe-OH)
Gel? ([1]; Component 1 10 mM/L, pH 7): ✓
Concentration ([1]; Properties of self-assembled Fmoc-dipeptides (Table 1), concentration range of gel): 2900 to 30000 µM
pH ([1]; Properties of self-assembled Fmoc-dipeptides (Table 1), pH range of gel): 4-8
pH ([1]; pH at which the gel formed at the indicated concentrations (Table 3)): 7
appearance of fibroblasts on top of hydrogel ([2]; 4 hours, 2D culture): spreaded
appearance of fibroblasts on top of hydrogel ([2]; 6 hours, 2D culture): spreaded
appearance of fibroblasts on top of hydrogel ([2]; 24 hours, 2D culture): rounded
diameter of rounded cells ([2]; between 24 and 72 hours, 2D culture): around 10 microns
cell attachment and spreading ([2]; within the first 8 hours of culturing, 2D): cell attachment and spreading was observed
average cell size (Human dermal fibroblasts): around 20 microns
